{
  "source": "patent US5013722A",
  "about": "“Cholecystokinin analogs for controlling appetite” (Hoffmann-LaRoche Inc., priority 1989, dated 1991)",
  "molecular_target": "T1, receptors in rat pancreas (3H-CCK-8-(SO3 H) binding) (Rattus norvegicus, UniProt P30551)",
  "T1 construct": "receptors in homogenized preparations of rat pancreatic cells and bovine striata; from tissue; host or cells: rat pancreas homogenate (48,000 x g pellet)",
  "T1 sequence (P30551 1-444)": "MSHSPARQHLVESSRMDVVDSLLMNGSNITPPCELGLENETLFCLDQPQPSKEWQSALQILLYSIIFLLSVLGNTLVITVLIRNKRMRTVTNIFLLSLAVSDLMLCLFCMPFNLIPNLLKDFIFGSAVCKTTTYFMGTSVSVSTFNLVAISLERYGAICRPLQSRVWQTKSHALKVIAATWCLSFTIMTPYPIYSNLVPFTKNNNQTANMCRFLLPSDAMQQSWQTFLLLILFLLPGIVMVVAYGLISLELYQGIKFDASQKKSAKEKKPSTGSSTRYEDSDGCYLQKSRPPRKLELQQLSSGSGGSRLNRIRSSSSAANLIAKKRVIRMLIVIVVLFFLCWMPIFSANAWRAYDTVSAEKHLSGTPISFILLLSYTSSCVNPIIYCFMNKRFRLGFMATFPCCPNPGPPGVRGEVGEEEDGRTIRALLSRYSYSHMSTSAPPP",
  "test": "In vitro receptor binding assay, rat pancreas homogenate, 3H-CCK-8-(SO3H) radioligand",
  "conditions": "0.15 nM radioligand, 30 min, 25° C.; read-out: Rat Pancreas IC50 (inhibition of specific 3H-CCK-8-(SO3H) binding)",
  "experimental": "This strategy was utilized to minimize central nervous system side effects by identifying peptides with peripheral receptor selectivity. […] The tissue was homogenized 2 x for approx. 15 sec. at 0° C. using a Polytron homogenizer at a setting of 6. The tissue was isolated by centrifugation at 48,000 x g for 10 min. at 0° C. […] Samples were incubated for 30 min. at 25° C. and the incubation terminated by pouring the mixture onto a pre-wet Whatman GF/B filter on a Sandbeck Vacuum Filtration Manifold. The incubation tubes were washed with 2×3 ml of ice-cold HEPES Buffer #2 and the wash filtered through the GF/B filter. The filter was air dried for 10 min. and then placed in a scintillation vial with 12 ml of Beckman HP/b Ready-Solv scintillation cocktail. The vials were shaken for 2 hours and then counted using a Beckman Model 7800 liquid scintillation spectrometer.",
  "note": "pIC50: −log10 of the molar value. Where a SMILES comes first, the peptide text is derived from it. [ ]: non-standard residue; d: D form. Thr(SO3H) = C[C@@H](OS(=O)(=O)O)[C@H](N)C(=O)O; sY = N[C@@H](Cc1ccc(OS(=O)(=O)O)cc1)C(=O)O; NMeF = CN[C@@H](Cc1ccccc1)C(=O)O",
  "data": [
    {"smiles": "CSCC[C@H](NC(=O)[C@H](Cc1ccc(OS(=O)(=O)O)cc1)NC(C)=O)C(=O)NCC(=O)N[C@@H](Cc1c[nH]c2ccccc12)C(=O)N[C@@H](CCSC)C(=O)N[C@H](C(=O)N(C)[C@@H](Cc1ccccc1)C(N)=O)[C@@H](C)OS(=O)(=O)O", "note": "[Example 2, Ac-Tyr(SO3 H)-Met-Gly-Trp-Met-Thr(SO3 H)-N-methyl-Phe-NH2] (Ac-[sY]MGWM[Thr(SO3H)][NMeF]-NH2)", "values": [
      {"measurement": "pIC50", "value": 8.66}
    ]}
  ]
}
